One experiment has as its target p70S6K (Homo sapiens, UniProt P23443). Kind of experiment: Biochemical inhibition profile, p70S6K. As to conditions: read-out: p70S6K percent inhibition at 20 μM.
The test system of the next experiment is RAF. Kind of experiment: Biochemical inhibition profile, RAF. Set-up: species or system Human. Particulars: read-out: Biochemical Inhibition Profile IC50, RAF.
The test system of another experiment is pFLT3. Particulars: Western blotting; 200 mg; 10/13 patients; cited from earlier work.
Another experiment addresses EPHA8 (Homo sapiens, UniProt P29322). As to the kind of experiment: Biochemical inhibition profile, EPHA8.
For another experiment, the system named is MV4-11. Kind of experiment: cells. It is filed as cell-based. Particulars: Homo sapiens, MV4-11, read-out: Cell-Based Antiproliferation Assay IC50.
Another experiment deals with pERK T202Y204 in HUVEC. Kind of experiment: Cell-based target inhibition assay, HUVEC, VEGF, pERK. Details: species or system human. As to conditions: Homo sapiens, read-out: Cell-Based Target Inhibition Assays IC50, pERK T202Y204.
The subject of experiment [1] is pERK T202Y204 in HUVEC (with BSA). Kind of experiment: Cell-based target inhibition assay, HUVEC, VEGF, pERK with BSA. Details: species or system human. As to conditions: Homo sapiens, read-out: Cell-Based Target Inhibition Assays IC50, pERK T202Y204 (with BSA).

The structures appear in SMILES notation. Where only a bound is given, the exact number is not on record here.

The inhibition is the relative decrease from the control value, in per cent.

p70S6K, sequence (P23443 whole entry): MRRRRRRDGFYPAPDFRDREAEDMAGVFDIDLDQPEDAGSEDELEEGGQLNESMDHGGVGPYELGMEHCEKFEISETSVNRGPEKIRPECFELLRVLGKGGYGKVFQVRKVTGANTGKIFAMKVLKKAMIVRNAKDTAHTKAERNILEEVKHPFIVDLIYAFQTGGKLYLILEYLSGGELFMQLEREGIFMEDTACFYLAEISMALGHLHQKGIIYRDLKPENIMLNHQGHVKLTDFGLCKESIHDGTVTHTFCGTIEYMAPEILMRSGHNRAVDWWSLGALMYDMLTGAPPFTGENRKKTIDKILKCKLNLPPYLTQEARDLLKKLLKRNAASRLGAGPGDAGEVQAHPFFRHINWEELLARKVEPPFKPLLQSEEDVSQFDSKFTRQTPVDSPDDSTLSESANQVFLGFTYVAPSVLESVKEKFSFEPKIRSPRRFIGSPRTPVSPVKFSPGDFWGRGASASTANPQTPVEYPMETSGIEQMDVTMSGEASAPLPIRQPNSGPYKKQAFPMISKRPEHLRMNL
EPHA8, sequence (P29322 28-1005): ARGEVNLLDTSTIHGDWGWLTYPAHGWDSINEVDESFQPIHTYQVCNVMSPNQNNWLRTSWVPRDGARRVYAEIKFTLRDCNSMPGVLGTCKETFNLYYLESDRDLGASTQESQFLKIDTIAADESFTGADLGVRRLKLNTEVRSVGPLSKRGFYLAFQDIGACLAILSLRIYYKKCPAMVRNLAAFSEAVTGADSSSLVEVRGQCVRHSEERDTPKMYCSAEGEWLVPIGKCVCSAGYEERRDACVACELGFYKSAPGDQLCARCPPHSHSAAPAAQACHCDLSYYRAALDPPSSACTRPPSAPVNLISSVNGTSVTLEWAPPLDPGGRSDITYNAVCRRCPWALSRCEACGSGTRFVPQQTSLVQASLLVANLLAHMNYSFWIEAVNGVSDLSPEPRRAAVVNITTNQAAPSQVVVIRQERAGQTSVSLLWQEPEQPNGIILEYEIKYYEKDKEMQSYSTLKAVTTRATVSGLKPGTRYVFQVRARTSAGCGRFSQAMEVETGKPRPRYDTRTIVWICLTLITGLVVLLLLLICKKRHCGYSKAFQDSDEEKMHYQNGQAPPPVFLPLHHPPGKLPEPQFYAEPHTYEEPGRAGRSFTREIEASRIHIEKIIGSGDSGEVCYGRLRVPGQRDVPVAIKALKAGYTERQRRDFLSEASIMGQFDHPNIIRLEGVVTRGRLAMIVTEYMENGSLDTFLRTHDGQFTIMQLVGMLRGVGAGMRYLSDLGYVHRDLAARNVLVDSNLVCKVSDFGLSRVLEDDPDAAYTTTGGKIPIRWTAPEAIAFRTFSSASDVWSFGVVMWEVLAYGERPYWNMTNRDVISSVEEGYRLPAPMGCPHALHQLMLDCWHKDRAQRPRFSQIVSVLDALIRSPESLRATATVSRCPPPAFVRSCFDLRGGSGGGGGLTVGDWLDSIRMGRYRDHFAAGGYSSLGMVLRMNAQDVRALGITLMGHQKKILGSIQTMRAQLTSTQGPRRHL

Turning to `CCN(CC)CCNC(=O)c1c(C)[nH]c(/C=C2\C(=O)Nc3ccc(F)cc32)c1C` [Sunitinib, reference compound], the inhibition at 20 µM at p70S6K worked out at 92.3%. For the same compound, the IC50 in the experiment with RAF is greater than 20000 nM; against EPHA8 it was greater than 20000 nM; in the experiment with MV4-11, 19.6 nM; in the experiment on pERK T202Y204 in HUVEC, 28.7 nM. In addition, the “Patients with reduction of pFLT3” value with pFLT3 was 77%.

Regarding `CNC(=O)c1cc(Oc2ccc(NC(=O)Nc3ccc(Cl)c(C(F)(F)F)c3)cc2)ccn1` [Sorafenib], on p70S6K, the inhibition at 20 µM was 75.6%. For the same compound, the values for the IC50 (with MV4-11; in experiment [1]) were 11.7 nM and 38 nM, respectively.

The record behind these values is article PMC3101112 (Cancer Management and Research, 2011).
